Measured values taken from patent US12539292B2, “BRM targeting compounds and associated methods of use” (Arvinas Operations, Inc., priority 2018, dated 2026).

Target: T1, BRM (Homo sapiens, UniProt P51531)
T1 construct: In-Cell Western Screen of BRM Degradation in SW1573 Cells; endogenous in cells; host or cells: SW1573
Experiment: In-cell Western screen of BRM degradation in SW1573 cells (Dmax and DC50)
Type: cell-based
Details: for Dmax: SW1573, read-out: BRM Dmax (%); for DC50: target protein degradation, read-out: BRM DC50
In short: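 Overnight compound treatment (18-20 h, final DMSO 0.1%) of SW1573 cells in DMEM with 10% FBS precedes fixation and in-cell Western staining with 800/680 nm dye-labelled secondaries. Plate images give DC50 and maximal degradation.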

[1] = % degraded, when tested at the top concentration of between 0.3 and 10 μM

T1 sequence (P51531 whole entry): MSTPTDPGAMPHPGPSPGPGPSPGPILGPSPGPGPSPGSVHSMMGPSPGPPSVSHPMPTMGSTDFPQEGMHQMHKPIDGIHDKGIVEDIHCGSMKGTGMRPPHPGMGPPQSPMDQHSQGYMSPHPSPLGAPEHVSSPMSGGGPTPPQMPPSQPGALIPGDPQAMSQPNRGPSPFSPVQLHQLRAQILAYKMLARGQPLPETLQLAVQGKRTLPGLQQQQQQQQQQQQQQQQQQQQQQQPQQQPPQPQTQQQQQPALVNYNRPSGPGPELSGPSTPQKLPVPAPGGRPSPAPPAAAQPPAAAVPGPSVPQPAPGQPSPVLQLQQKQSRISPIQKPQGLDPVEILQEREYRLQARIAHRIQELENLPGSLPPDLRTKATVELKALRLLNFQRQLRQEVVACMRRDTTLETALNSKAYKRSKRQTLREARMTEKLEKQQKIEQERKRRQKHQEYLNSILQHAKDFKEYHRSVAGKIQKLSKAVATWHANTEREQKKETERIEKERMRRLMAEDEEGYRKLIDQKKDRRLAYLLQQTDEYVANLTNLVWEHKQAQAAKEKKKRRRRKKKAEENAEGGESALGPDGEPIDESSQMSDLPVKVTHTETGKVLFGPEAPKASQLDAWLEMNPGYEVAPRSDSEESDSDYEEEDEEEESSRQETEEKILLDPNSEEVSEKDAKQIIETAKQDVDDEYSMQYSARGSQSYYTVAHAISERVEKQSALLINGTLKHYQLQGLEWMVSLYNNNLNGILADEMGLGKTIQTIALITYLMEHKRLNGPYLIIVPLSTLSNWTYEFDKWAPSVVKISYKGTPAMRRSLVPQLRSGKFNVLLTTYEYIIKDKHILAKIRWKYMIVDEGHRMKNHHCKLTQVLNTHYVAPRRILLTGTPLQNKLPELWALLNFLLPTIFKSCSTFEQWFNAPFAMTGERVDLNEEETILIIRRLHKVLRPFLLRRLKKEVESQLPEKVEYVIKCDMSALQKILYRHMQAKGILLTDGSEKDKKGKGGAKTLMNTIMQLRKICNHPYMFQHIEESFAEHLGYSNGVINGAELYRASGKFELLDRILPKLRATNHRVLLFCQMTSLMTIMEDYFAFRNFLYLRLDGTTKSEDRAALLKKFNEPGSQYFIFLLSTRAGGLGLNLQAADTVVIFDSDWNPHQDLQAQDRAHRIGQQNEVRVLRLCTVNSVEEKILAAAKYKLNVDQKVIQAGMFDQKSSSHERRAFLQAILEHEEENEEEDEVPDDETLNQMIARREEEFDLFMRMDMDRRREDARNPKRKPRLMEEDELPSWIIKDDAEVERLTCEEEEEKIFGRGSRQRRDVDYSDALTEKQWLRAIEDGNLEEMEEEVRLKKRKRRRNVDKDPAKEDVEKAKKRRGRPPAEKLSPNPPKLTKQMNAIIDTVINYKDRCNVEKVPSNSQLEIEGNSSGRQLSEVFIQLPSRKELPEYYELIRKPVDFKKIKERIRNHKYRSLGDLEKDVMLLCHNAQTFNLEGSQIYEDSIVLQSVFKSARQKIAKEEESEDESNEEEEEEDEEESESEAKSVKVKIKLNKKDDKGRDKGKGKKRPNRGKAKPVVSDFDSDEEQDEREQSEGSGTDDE

Row | SMILES | Dmax [1] | DC50 | BRM Dmax (%) [1]
1 | Cc1ncsc1-c1ccc([C@H](C)NC(=O)[C@@H]2C[C@@H](O)CN2C(=O)[C@@H](c2cc(OCCN3CCC(O[C@H]4C[C@H](Oc5cc(N6C7CCC6CN(c6cc(-c8ccccc8O)nnc6N)C7)ccn5)C4)CC3)no2)C(C)C)nc1 [compound 368, (2S,4R)-1-((2R)-2-(3-(2-(4-((1r,3R)-3-((4-(3-(3-amino-6-(2-hydroxyphenyl)pyridazin-4-yl)-3,8-diazabicyclo[3.2.1]octan-8-yl)pyridin-2-yl)oxy)cyclobutoxy)piperidin-1-yl)ethoxy)isoxazol-5-yl)-3-methylbutanoyl)-4-hydroxy-N-((S)-1-(5-(4-methylthiazol-5-yl)pyridin-2-yl)ethyl)pyrrolidine-2-carboxamide] | > 75% | < 2.5 nM | 
2 | Cc1ncsc1-c1ccc([C@H](C)NC(=O)[C@@H]2C[C@@H](O)CN2C(=O)[C@H](c2cc(OC3CN(CCN4CCC(O[C@H]5C[C@H](Oc6cc(N7C8CCC7CN(c7cc(-c9ccccc9O)nnc7N)C8)ccn6)C5)CC4)C3)no2)C(C)C)cc1 [compound 370, (2S,4R)-1-((2S)-2-(3-((1-(2-(4-((1r,3r)-3-((4-(3-(3-amino-6-(2-hydroxyphenyl)pyridazin-4-yl)-3,8-diazabicyclo[3.2.1]octan-8-yl)pyridin-2-yl)oxy)cyclobutoxy)piperidin-1-yl)ethyl)azetidin-3-yl)oxy)isoxazol-5-yl)-3-methylbutanoyl)-4-hydroxy-N-((S)-1-(4-(4-methylthiazol-5-yl)phenyl)ethyl)pyrrolidine-2-carboxamide] | > 75% | 10 to 30 nM | 
3 | Cc1ncsc1-c1ccc([C@H](C)NC(=O)[C@@H]2C[C@@H](O)CN2C(=O)[C@@H](c2cc(OC3CN(CCN4CCC(O[C@H]5C[C@H](Oc6cc(N7C8CCC7CN(c7cc(-c9ccccc9O)nnc7N)C8)ccn6)C5)CC4)C3)no2)C(C)C)cc1 [compound 371, (2S,4R)-1-((2R)-2-(3-((1-(2-(4-((1r,3r)-3-((4-(3-(3-amino-6-(2-hydroxyphenyl)pyridazin-4-yl)-3,8-diazabicyclo[3.2.1]octan-8-yl)pyridin-2-yl)oxy)cyclobutoxy)piperidin-1-yl)ethyl)azetidin-3-yl)oxy)isoxazol-5-yl)-3-methylbutanoyl)-4-hydroxy-N-((S)-1-(4-(4-methylthiazol-5-yl)phenyl)ethyl)pyrrolidine-2-carboxamide] | > 75% | < 2.5 nM | 
4 | CC(C)[C@H](C(=O)N1C[C@H](O)C[C@H]1C(=O)N[C@@H](C)c1ccc(-n2ccccc2=O)cc1)c1cc(OCCN2CCC(O[C@H]3C[C@H](Oc4cc(N5C6CCC5CN(c5cc(-c7ccccc7O)nnc5N)C6)ccn4)C3)CC2)no1 [compound 372, (2S,4R)-1-((2S)-2-(3-(2-(4-((1r,3S)-3-((4-(3-(3-amino-6-(2-hydroxyphenyl)pyridazin-4-yl)-3,8-diazabicyclo[3.2.1]octan-8-yl)pyridin-2-yl)oxy)cyclobutoxy)piperidin-1-yl)ethoxy)isoxazol-5-yl)-3-methylbutanoyl)-4-hydroxy-N-((S)-1-(4-(2-oxopyridin-1(2H)-yl)phenyl)ethyl)pyrrolidine-2-carboxamide] | > 75% | > 30 nM | 
5 | CC(C)[C@@H](C(=O)N1C[C@H](O)C[C@H]1C(=O)N[C@@H](C)c1ccc(-n2ccccc2=O)cc1)c1cc(OCCN2CCC(O[C@H]3C[C@H](Oc4cc(N5C6CCC5CN(c5cc(-c7ccccc7O)nnc5N)C6)ccn4)C3)CC2)no1 [compound 373, (2S,4R)-1-((2R)-2-(3-(2-(4-((1r,3R)-3-((4-(3-(3-amino-6-(2-hydroxyphenyl)pyridazin-4-yl)-3,8-diazabicyclo[3.2.1]octan-8-yl)pyridin-2-yl)oxy)cyclobutoxy)piperidin-1-yl)ethoxy)isoxazol-5-yl)-3-methylbutanoyl)-4-hydroxy-N-((S)-1-(4-(2-oxopyridin-1(2H)-yl)phenyl)ethyl)pyrrolidine-2-carboxamide] |  | > 30 nM | 
6 | Cc1ncsc1-c1ccc([C@H](C)NC(=O)[C@@H]2C[C@@H](O)CN2C(=O)[C@@H](c2cc(OCCN3CCC(N4CC(Oc5cc(N6C7CCC6CN(c6cc(-c8ccccc8O)nnc6N)C7)ccn5)C4)CC3)no2)C(C)C)cc1 [compound 374, (2S,4R)-1-((2R)-2-(3-(2-(4-(3-((4-(3-(3-amino-6-(2-hydroxyphenyl)pyridazin-4-yl)-3,8-diazabicyclo[3.2.1]octan-8-yl)pyridin-2-yl)oxy)azetidin-1-yl)piperidin-1-yl)ethoxy)isoxazol-5-yl)-3-methylbutanoyl)-4-hydroxy-N-((S)-1-(4-(4-methylthiazol-5-yl)phenyl)ethyl)pyrrolidine-2-carboxamide] | > 75% | > 30 nM | 
7 | Cc1cnc(C)n1-c1ccc([C@H](C)NC(=O)[C@@H]2C[C@@H](O)CN2C(=O)[C@H](c2cc(OCCN3CCC(O[C@H]4C[C@H](Oc5cc(N6C7CCC6CN(c6cc(-c8ccccc8O)nnc6N)C7)ccn5)C4)CC3)no2)C(C)C)cc1 [compound 375, (2S,4R)-1-((2S)-2-(3-(2-(4-((1r,3S)-3-((4-(3-(3-amino-6-(2-hydroxyphenyl)pyridazin-4-yl)-3,8-diazabicyclo[3.2.1]octan-8-yl)pyridin-2-yl)oxy)cyclobutoxy)piperidin-1-yl)ethoxy)isoxazol-5-yl)-3-methylbutanoyl)-N-((S)-1-(4-(2,5-dimethyl-1H-imidazol-1-yl)phenyl)ethyl)-4-hydroxypyrrolidine-2-carboxamide] |  | > 30 nM | 
8 | Cc1cnc(C)n1-c1ccc([C@H](C)NC(=O)[C@@H]2C[C@@H](O)CN2C(=O)[C@@H](c2cc(OCCN3CCC(O[C@H]4C[C@H](Oc5cc(N6C7CCC6CN(c6cc(-c8ccccc8O)nnc6N)C7)ccn5)C4)CC3)no2)C(C)C)cc1 [compound 376, (2S,4R)-1-((2R)-2-(3-(2-(4-((1r,3R)-3-((4-(3-(3-amino-6-(2-hydroxyphenyl)pyridazin-4-yl)-3,8-diazabicyclo[3.2.1]octan-8-yl)pyridin-2-yl)oxy)cyclobutoxy)piperidin-1-yl)ethoxy)isoxazol-5-yl)-3-methylbutanoyl)-N-((S)-1-(4-(2,5-dimethyl-1H-imidazol-1-yl)phenyl)ethyl)-4-hydroxypyrrolidine-2-carboxamide] | > 75% | 10 to 30 nM | 
9 | Cc1n[nH]c(C)c1-c1ccc([C@H](C)NC(=O)[C@@H]2C[C@@H](O)CN2C(=O)[C@H](c2cc(OCCN3CCC(O[C@H]4C[C@H](Oc5cc(N6C7CCC6CN(c6cc(-c8ccccc8O)nnc6N)C7)ccn5)C4)CC3)no2)C(C)C)cc1 [compound 377, (2S,4R)-1-((2S)-2-(3-(2-(4-((1r,3S)-3-((4-(3-(3-amino-6-(2-hydroxyphenyl)pyridazin-4-yl)-3,8-diazabicyclo[3.2.1]octan-8-yl)pyridin-2-yl)oxy)cyclobutoxy)piperidin-1-yl)ethoxy)isoxazol-5-yl)-3-methylbutanoyl)-N-((S)-1-(4-(3,5-dimethyl-1H-pyrazol-4-yl)phenyl)ethyl)-4-hydroxypyrrolidine-2-carboxamide] | > 75% | 10 to 30 nM | 
10 | Cc1n[nH]c(C)c1-c1ccc([C@H](C)NC(=O)[C@@H]2C[C@@H](O)CN2C(=O)[C@@H](c2cc(OCCN3CCC(O[C@H]4C[C@H](Oc5cc(N6C7CCC6CN(c6cc(-c8ccccc8O)nnc6N)C7)ccn5)C4)CC3)no2)C(C)C)cc1 [compound 378, (2S,4R)-1-((2R)-2-(3-(2-(4-((1r,3R)-3-((4-(3-(3-amino-6-(2-hydroxyphenyl)pyridazin-4-yl)-3,8-diazabicyclo[3.2.1]octan-8-yl)pyridin-2-yl)oxy)cyclobutoxy)piperidin-1-yl)ethoxy)isoxazol-5-yl)-3-methylbutanoyl)-N-((S)-1-(4-(3,5-dimethyl-1H-pyrazol-4-yl)phenyl)ethyl)-4-hydroxypyrrolidine-2-carboxamide] | > 75% | < 2.5 nM | 
11 | Cc1ncsc1-c1ccc([C@H](C)NC(=O)[C@@H]2C[C@@H](O)CN2C(=O)[C@H](c2cc(C#CCN3CCC(OC4CC(Oc5cc(N6C7CC[C@@H]6CN(c6cc(-c8ccccc8O)nnc6N)C7)ccn5)C4)CC3)no2)C(C)C)cc1 (stereo partly drawn) [compound 379, (2S,4R)-1-((2S)-2-(3-(3-(4-((1r,3S)-3-((4-(3-(3-amino-6-(2-hydroxyphenyl)pyridazin-4-yl)-3,8-diazabicyclo[3.2.1]octan-8-yl)pyridin-2-yl)oxy)cyclobutoxy)piperidin-1-yl)prop-1-yn-1-yl)isoxazol-5-yl)-3-methylbutanoyl)-4-hydroxy-N-((S)-1-(4-(4-methylthiazol-5-yl)phenyl)ethyl)pyrrolidine-2-carboxamide] |  | > 30 nM | 
12 | Cc1ncsc1-c1ccc([C@H](C)NC(=O)[C@@H]2C[C@@H](O)CN2C(=O)[C@@H](c2cc(C#CCN3CCC(O[C@H]4C[C@H](Oc5cc(N6C7CCC6CN(c6cc(-c8ccccc8O)nnc6N)C7)ccn5)C4)CC3)no2)C(C)C)cc1 [compound 380, (2S,4R)-1-((2R)-2-(3-(3-(4-((1r,3R)-3-((4-(3-(3-amino-6-(2-hydroxyphenyl)pyridazin-4-yl)-3,8-diazabicyclo[3.2.1]octan-8-yl)pyridin-2-yl)oxy)cyclobutoxy)piperidin-1-yl)prop-1-yn-1-yl)isoxazol-5-yl)-3-methylbutanoyl)-4-hydroxy-N-((S)-1-(4-(4-methylthiazol-5-yl)phenyl)ethyl)pyrrolidine-2-carboxamide] | > 75% | < 2.5 nM | 
13 | Cc1ncsc1-c1ccc([C@H](C)NC(=O)[C@@H]2C[C@@H](O)CN2C(=O)[C@H](c2cc(OCC#CC34CC(CNC5CC(Oc6cc(N7C8CC[C@@H]7CN(c7cc(-c9ccccc9O)nnc7N)C8)ccn6)C5)(C3)C4)no2)C(C)C)cc1 (stereo partly drawn) [compound 381, (2S,4R)-1-((2S)-2-(3-((3-(3-((((1r,3S)-3-((4-(3-(3-amino-6-(2-hydroxyphenyl)pyridazin-4-yl)-3,8-diazabicyclo[3.2.1]octan-8-yl)pyridin-2-yl)oxy)cyclobutyl)amino)methyl)bicyclo[1.1.1]pentan-1-yl)prop-2-yn-1-yl)oxy)isoxazol-5-yl)-3-methylbutanoyl)-4-hydroxy-N-((S)-1-(4-(4-methylthiazol-5-yl)phenyl)ethyl)pyrrolidine-2-carboxamide] |  | 10 to 30 nM | A (A > 75)
